The subject of test [1] is IL-6 amplifier. In words: Example 1: mIL-6 protein production on IL-6 amplifier activation in BC-1 cells or MEFs (ELISA). The note with it: 30 min pretreatment with 0.1, 1 or 10 micromoles/L ErbB1 inhibitor, then conditions (a) to (d), 24 hours, 10% FBS. It counts as cell-based, mouse. How it is done: 2×10^5 mouse BC-1 cells were cultured in an RPMI 1640 medium for 24 hours under each of the following conditions: • (a) in the presence of 10% FBS, • (b) with the addition of 50 ng/ml of hIL-6 protein and 50 ng/ml of hIL-6R protein (hereinafter referred to as “hIL-6/6R proteins”) and in the presence of 10% FBS, • (c) with the addition of 50 ng/ml of mIL-17A protein and in the presence of 10% FBS, • (d) with the addition of hIL-6/6R proteins at 50 ng/ml and mIL-17A protein at 50 ng/ml and in the presence of 10% FBS, • (e) in the absence of FBS, • (f) with the addition of hIL-6/6R proteins each at 50 ng/ml and in the absence of FBS, • (g) with the addition of 50 ng/ml of mIL-17A protein and in the absence of FBS, or • (h) with the addition of hIL-6/6R proteins each at 50 ng/ml and mIL-17A protein at 50 ng/ml and in the absence of FBS.
2×10^5 mouse BC-1 cells or 2×10^5 mouse embryonic fibroblasts (MEFs) were cultured for 30 minutes in an RPMI 1640 medium, in the presence of 0.1, 1, or 10 micromoles/L of PD153065; or in the presence of 0.1, 1, or 10 micromoles/L of PD168393 (Calbiochem). […]
After the culture, the production amount of mouse IL-6 protein under each condition was quantified by an ELISA method. […]
(An ELISA detects its analyte on a solid surface through an enzyme-linked reagent.)

In test [2] the test system is cytokine-induced arthritis mice. The test is described as follows: Clinical score of arthritis in cytokine-induced arthritis mice (F759 mice). It counts as in vivo, mouse. How it is done:
On each of days 0, 1, and 2, 100 ng of mIL-6 protein and 100 ng of mIL-17A protein, as cytokines, were injected into the malleolus joints of 8-week-old F759 mice to induce arthritis. At the same time, on each of days 0 to 23, 10 micrograms of PD153035 dissolved in DMSO was injected into the malleolus joints (n=6). Mice injected with the cytokines and DMSO only (n=6), and mice injected with DMSO only (n=6) served as control groups.
From day 0 to day 23, symptom of arthritis was evaluated by clinical scores. Specific examples of the evaluation are described below and in FIG. 2. Specifically, for example, the clinical score is 0 if the movable range of malleolus joint is a healthy state as shown in FIG. 14(A), and the clinical score is 3 if severe arthritis develops and the movable range of malleolus joint is 60° smaller than the healthy case as shown in FIG. 14(B). Further, the clinical score is 1 if the movable range of malleolus joint is 20° smaller than the healthy case, and the clinical score is 2 if the movable range of malleolus joint is 40° smaller than the healthy case.
F759 mice used as cytokine-induced arthritis mice are genetically modified mice in which F759 mutation (in which tyrosine residue 759 (Y) is replaced by phenylalanine (F) in gp130 protein, a receptor of IL-6 protein, etc.) is introduced (Non-Patent Literature 3); and in F759 mice, dysregulation of IL-6 amplifier is observed (Non-Patent Literature 1). Dysregulation of IL-6 amplifier observed in F759 mice is believed to be caused as follows: SOCS3 protein signal transduction, which is dependent on the phosphorylation status of tyrosine residue 759 (Y759) of gp130 protein, is inhibited by F759 mutation, thereby decreasing the action of suppressing STAT3 signals via SOCS3 protein to enhance STAT3-dependent signals. It is known that autoimmune arthritis develops in almost 100% of the mice one to one-and-a-half years after birth. It is also known that arthritis develops earlier by injecting inflammatory cytokines, such as IL-6 and IL-17, into joints (e.g., malleolus joints) of the mice. […]

For test [3], the system named is IL-6 amplifier. The test is described as follows: Reference Example 5: mIL-6 production on IL-6 amplifier activation with epiregulin in BC-1 cells (ELISA). In kind it is cell-based. The note with it: 24 hours, 100 ng/ml mouse epiregulin protein, conditions (e) to (h), inhibitor 0, 0.1, 1 or 10 micromoles/L. The protocol:
After the culture, the production amount of mouse IL-6 (mIL-6) protein in each of the clones, i.e., the amount of mIL-6 protein in the medium solution, was quantified by an ELISA method. In the ELISA method, anti-mIL-6 antibody and an ELISA kit, both manufactured by eBioscience, Inc., were used. In addition, a cell proliferation assay was performed for each of the clones, using a TetraColor ONE kit (Seikagaku Corporation). […]
After the culture, the production amount of mouse IL-6 protein under each condition was quantified by an ELISA method in the same manner as in Reference Example 1. […]

Test [4] deals with IL-6 amplifier. In words: Reference Example 10: hIL-6 gene expression in human synovial fibroblasts with epiregulin (RT-PCR). In kind it is cell-based. The note with it: 3 hours, 100 ng/ml epiregulin protein, inhibitor 0 or 10 micromoles/L.
Method: In addition, the expression amounts of mIL-6 gene were quantified by a real-time RT-PCR method. The real-time RT-PCR method was performed using a GeneAmp 5700 sequence detection system (Applied Biosystems) and a SYBER green PCR Master Mix (Sigma-Aldrich Co. LLC.). The conditions of the PCR amplification were as follows: the amplification was performed in 40 cycles, each cycle consisting of thermal denaturation (94° C., 15 seconds), annealing (60° C., 30 seconds), and extension reaction (72° C., 30 seconds)). […] After the culture, the expression amount of human IL-6 gene under each condition was quantified by a RT-PCR method in the same manner as in Reference Example 9.
For test [5], the system named is IL-6 amplifier. The test is described as follows: Reference Example 3: effect of growth factors on mIL-6 protein production in BC-1 cells (ELISA). It counts as cell-based, mouse. The note with it: 24 hours, hIL-6/6R and mIL-17A each 50 ng/ml, growth factor added, versus none added. The protocol:
2×10^5 mouse BC-1 cells were cultured for 24 hours in an RPMI 1640 medium containing hIL-6/6R proteins each at 50 ng/ml and mIL-17A protein at 50 ng/ml under the condition in which 100 ng/ml of mouse EGF protein (R&D Systems, Inc.), 100 ng/ml of human HB-EGF protein (R&D Systems, Inc.), 0.1, 1, 10, or 100 ng/ml of mouse epiregulin protein (R&D Systems, Inc.), 50 ng/ml of mouse VEGF protein (R&D Systems, Inc.), 50 ng/ml of mouse FGF7 protein (R&D Systems, Inc.), or 300 ng/ml of mPDGF-CC protein (R&D Systems, Inc.) was separately added. Mouse BC-1 cells cultured under the condition in which only hIL-6/6R proteins and mIL-17A protein were added served as a control group.
After the culture, the production amount of mIL-6 protein under each condition was quantified by an ELISA method in the same manner as in Reference Example 1. FIGS. 5 and 6 show the results.

For test [6], the system named is experimental autoimmune encephalomyelitis (EAE) mice. In words: Clinical score in experimental autoimmune encephalomyelitis (EAE) mice. In kind it is in vivo, mouse. The note with it: 5 mg intraperitoneal on each of days 0 to 6, scored day 0 to 13, control DMSO. The protocol:
EAE mice were made according to the method described in Non-Patent Literature 1.
200 micrograms of MOG (myelin oligodendrocyte glycoprotein) peptide (peptide comprising residues 33 to 55 of the full-length amino acid sequence of mouse MOG protein (amino acid sequence shown in SEQ ID NO: 9)) dissolved in Complete Freund's adjuvant (CFA) was administered to the tail of a 7- to 8-week-old C57/B6-strain mouse by subcutaneous injection, followed by intravenous injection of 200 nanograms of pertussis toxin (PTx).
A MOG-specific CDCT cell group was obtained according to a ordinary method from the spleen removed after feeding the above mouse for 10 days. 2×10^5 cells of the MOG-specific CDCT cells were cultured with 5×10^5 C57/B6-strain mouse bone marrow-derived dendritic cells (BMDCs) pulsed with MOG peptide in an RPMI 1640 medium containing 10% FBS in the presence of 20 ng/ml of recombinant IL-23 (rIL-23) protein in an incubator at a temperature of 37° C. to obtain a cell group containing pathogenic Th17 cells. […]
From day 0 to day 12, the clinical score in each mouse was evaluated according to the method described in Non-Patent Literature 1. […]
From day 0 to day 13, the clinical score in each mouse was evaluated according to the method described in Non-Patent Literature 1.

The mark [7] stands for this setting: mIL-6 + mIL-17A days 0, 1, 2, 10 micrograms into malleolus joints on each of days 0 to 23, scored day 0 to 23.

In the case of `C=CC(=O)Nc1ccc2ncnc(Nc3cccc(Br)c3)c2c1` [PD168393, 4-[(3-Bromophenyl)amino]-6-acrylamidoquinazoline], the “increase in the expression amount of mIL-6 protein due to activation of IL-6 amplifier” value in the test with IL-6 amplifier [1] is “can be suppressed”. In addition, the “symptom of arthritis (clinical score)” value in test [2] (mIL-6 + mIL-17A days 0, 1, 2, 10 micrograms into malleolus joints on each of days 0 to 11, scored day 0 to 23) is “symptom of cytokine-induced arthritis was alleviated, or worsening of symptom of cytokine-induced arthritis was suppressed”.

For `COc1cc2ncnc(Nc3cccc(Br)c3)c2cc1OC` [PD153035, 4-[(3-Bromophenyl)amino]-6,7-dimethoxyquinazoline], the “increase in the expression amount of mIL-6 protein due to activation of IL-6 amplifier” value with IL-6 amplifier [1] is on record as “can be suppressed”. The “Increase in the amount of transcription of mIL-6 due to epiregulin protein (production amount of mouse IL-6 protein by ELISA)” value in the test on IL-6 amplifier [3] is recorded as “inhibited in a manner dependent on the addition amount”. Besides, in test [2] (setting [7]), the “symptom of arthritis (clinical score)” value is “symptom of cytokine-induced arthritis was alleviated, or worsening of symptom of cytokine-induced arthritis was suppressed”. Besides, the “Increase in the amount of transcription of hIL-6 due to epiregulin protein” value in the test with IL-6 amplifier [4] is recorded as “inhibited in a manner dependent on the addition amount”.

Take “EGF protein: mouse EGF protein (R&D Systems, Inc.), ligand of ErbB1 protein (NSYPGCPSSYDGYCLNGGVCMHIESLDSYTCNCVIGYSGDRCQTRDLRWWELR)”: in the test on IL-6 amplifier [5], the “production amount of mIL-6 protein” value was “significantly (p value <0.01) increased”.

For the molecule `COc1cc2ncnc(Nc3ccc(F)c(Cl)c3)c2cc1OCCCN1CCOCC1` [gefitinib, N-(3-chloro-4-fluoro-phenyl)-7-methoxy-6-(3-morpholin-4-ylpropoxy) quinazolin-4-amine], the “symptom of experimental autoimmune encephalomyelitis (clinical score)” value in test [6] is listed as “symptom of experimental autoimmune encephalomyelitis was alleviated, or worsening of symptom of experimental autoimmune encephalomyelitis was suppressed”. Besides, the “symptom of arthritis (clinical score)” value in test [2] (setting [7]) was “symptom of cytokine-induced arthritis was alleviated, or worsening of symptom of cytokine-induced arthritis was suppressed”.
